Test results: PMC3534870 (Bioorganic & medicinal chemistry letters, 2012)

Legend:
[1] = target: T1, GST-RORγ (Homo sapiens, UniProt P51449); assay: Radioligand binding; details: versus 6p
T1 sequence (P51449 269-508 limits assumed): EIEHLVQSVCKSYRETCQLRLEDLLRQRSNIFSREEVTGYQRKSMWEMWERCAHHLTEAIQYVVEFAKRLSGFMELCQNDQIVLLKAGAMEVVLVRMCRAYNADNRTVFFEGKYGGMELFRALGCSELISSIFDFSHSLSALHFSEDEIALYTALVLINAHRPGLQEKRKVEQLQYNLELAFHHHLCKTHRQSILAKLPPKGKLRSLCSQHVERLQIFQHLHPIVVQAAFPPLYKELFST

[2] = target: T2, RORα (Homo sapiens, UniProt P35398); assay: Gal4 DBD-NR LBD cotransfection assay, RORα; type: cell-based; details: data not shown
T2 sequence (P35398 272-510 limits assumed): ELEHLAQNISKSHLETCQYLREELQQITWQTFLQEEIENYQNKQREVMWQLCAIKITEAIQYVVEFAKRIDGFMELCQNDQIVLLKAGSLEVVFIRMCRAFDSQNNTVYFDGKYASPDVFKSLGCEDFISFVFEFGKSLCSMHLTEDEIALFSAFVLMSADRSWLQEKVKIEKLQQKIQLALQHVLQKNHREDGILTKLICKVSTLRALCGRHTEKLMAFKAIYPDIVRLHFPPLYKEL

[3] = target: p450 3A4 (Homo sapiens, UniProt P08684); assay: p450 inhibition 3A4; type: in vitro ADME; details: 10 µM drug
[4] = target: T3, FXR (Homo sapiens, UniProt Q96RI1); assay: Gal4 DBD-NR LBD cotransfection assay, FXR; type: cell-based; details: data not shown
T3 sequence (Q96RI1 262-486 limits assumed): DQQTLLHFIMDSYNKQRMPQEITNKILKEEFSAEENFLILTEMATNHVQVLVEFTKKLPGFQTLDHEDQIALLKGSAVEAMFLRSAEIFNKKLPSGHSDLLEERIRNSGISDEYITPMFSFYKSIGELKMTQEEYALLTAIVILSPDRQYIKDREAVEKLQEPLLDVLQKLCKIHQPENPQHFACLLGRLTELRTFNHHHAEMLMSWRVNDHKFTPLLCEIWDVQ

[5] = Solubility; type: physicochemical; details: 20hr
[6] = target: p450 2C9 (Homo sapiens, UniProt P11712); assay: p450 inhibition 2C9; type: in vitro ADME; details: 10 µM drug
[7] = target: T4, LXRα (Homo sapiens, UniProt Q13133); assay: Gal4 DBD-NR LBD cotransfection assay, LXRα; type: cell-based; details: data not shown
T4 sequence (Q13133 209-447 limits assumed): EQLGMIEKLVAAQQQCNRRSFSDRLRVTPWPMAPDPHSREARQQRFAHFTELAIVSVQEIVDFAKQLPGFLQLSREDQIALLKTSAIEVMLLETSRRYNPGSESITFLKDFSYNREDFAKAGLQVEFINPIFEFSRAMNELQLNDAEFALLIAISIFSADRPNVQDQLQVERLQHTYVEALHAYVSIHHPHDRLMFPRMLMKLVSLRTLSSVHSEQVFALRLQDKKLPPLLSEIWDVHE

[8] = CNS exposure: plasma and brain levels in mice; details: t = 6h

Sequence of p450 2C9 (P11712 whole entry, the tested form may be a part): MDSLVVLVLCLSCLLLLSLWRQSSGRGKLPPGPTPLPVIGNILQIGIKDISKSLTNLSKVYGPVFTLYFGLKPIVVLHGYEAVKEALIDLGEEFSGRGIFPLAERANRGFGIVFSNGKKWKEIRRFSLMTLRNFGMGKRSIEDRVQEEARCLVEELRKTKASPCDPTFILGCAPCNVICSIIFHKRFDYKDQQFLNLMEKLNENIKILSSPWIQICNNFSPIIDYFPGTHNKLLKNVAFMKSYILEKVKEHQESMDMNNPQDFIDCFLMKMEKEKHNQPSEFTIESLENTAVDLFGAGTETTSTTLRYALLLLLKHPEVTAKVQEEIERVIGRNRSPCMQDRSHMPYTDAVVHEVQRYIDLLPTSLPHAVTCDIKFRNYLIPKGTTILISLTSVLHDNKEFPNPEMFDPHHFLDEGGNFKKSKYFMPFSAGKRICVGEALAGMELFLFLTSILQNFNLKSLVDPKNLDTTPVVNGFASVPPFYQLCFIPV
Sequence of p450 3A4 (P08684 whole entry, the tested form may be a part): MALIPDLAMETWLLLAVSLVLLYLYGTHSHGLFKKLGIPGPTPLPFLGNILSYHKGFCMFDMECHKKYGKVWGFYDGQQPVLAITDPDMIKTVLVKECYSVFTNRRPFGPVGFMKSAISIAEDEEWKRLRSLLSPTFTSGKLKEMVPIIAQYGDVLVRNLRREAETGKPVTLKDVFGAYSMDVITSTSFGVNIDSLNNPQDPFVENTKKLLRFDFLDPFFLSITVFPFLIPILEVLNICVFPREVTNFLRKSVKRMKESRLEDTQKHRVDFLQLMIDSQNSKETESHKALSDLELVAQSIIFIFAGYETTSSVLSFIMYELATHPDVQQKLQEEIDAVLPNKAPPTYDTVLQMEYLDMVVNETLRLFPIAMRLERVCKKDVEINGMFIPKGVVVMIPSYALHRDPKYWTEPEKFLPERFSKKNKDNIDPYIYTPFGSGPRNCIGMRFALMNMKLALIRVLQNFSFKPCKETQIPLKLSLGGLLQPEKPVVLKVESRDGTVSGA

COc1ccc(C(CC(=O)N2CCOCC2)c2c(O)cc(OC)cc2OC)cc1 (centres unmarked) [Compound 6l]
RORγ activity in words (binding assay) [1]: loss of activity

COc1ccc(C(CC(=O)N2CCCCC2)c2c(O)cc(OC)cc2OC)cc1 (centres unmarked) [Compound 6m]
RORγ activity in words (binding assay) [1]: loss of activity

COc1ccc(C(CC(=O)NC2CCCC2)c2c(O)cc(OC)cc2OC)cc1 (centres unmarked) [Compound 6n]
RORγ activity in words (binding assay) [1]: loss of activity

COc1ccc(C(CC(=O)N2CCCC2)c2c(O)cc(OC)cc2OC)cc1 (centres unmarked) [Compound 6o]
RORγ activity in words (binding assay) [1]: loss of activity

COc1cc(O)c(C(CC(=O)N2CC(C)CC(C)C2)c2ccc3c(c2)OCO3)c(OC)c1 (centres unmarked) [Compound 1]
activity on RORα [2]: did not show any activity
p450 % inhibition 3A4 [3]: high
activity on FXR [4]: did not show any activity
Solubility pH 7.4 ([5]; 100 µM solution shaken in PBS pH 7.4, room temperature): low to modest
Solubility pH 5.0 ([5]; 100 µM solution shaken in Sodium Citrate Buffer pH 5.0, room temperature): low to modest
p450 % inhibition 2C9 [6]: high
activity on LXRα [7]: did not show any activity
[Plasma] ([8]; 10 mg/kg IP in 10:10:80 DMSO:Tween:water): limited
b.p. (%) brain penetration ([8]; 10 mg/kg IP): good

COc1ccc(C(CC(=O)NCc2ccccc2)c2c(O)cc(OC)cc2OC)cc1 (centres unmarked) [Compound 6k]
RORγ activity in words (binding assay) [1]: loss of activity
